Assays:
Assay type in all cases: biochemical
human JAK1 [1] = target: human JAK1 (Homo sapiens, UniProt P23458); assay: In vitro JAK kinase assay (HTRF, phosphorylation of a biotinylated peptide), JAK1; conditions: 1 mM ATP
Procedure: (§1) Compounds herein were tested for inhibitory activity of JAK targets according to the following in vitro assay described in Park et al., Analytical Biochemistry 1999, 269, 94-104. The catalytic domains of human JAK1 (a.a. 837-1142), JAK2 (a.a. 828-1132) and JAK3 (a.a. 781-1124) were expressed using baculovirus in insect cells and purified. The catalytic activity of JAK1, JAK2 or JAK3 was assayed by measuring the phosphorylation of a biotinylated peptide. The phosphorylated peptide was detected by homogenous time resolved fluorescence (HTRF). IC50s of compounds were measured for each kinase in the 40 μL reactions that contain the enzyme, ATP and 500 nM peptide in 50 mM Tris (pH 7.8) buffer with 100 mM NaCl, 5 mM DTT, and 0.1 mg/mL (0.01%) BSA. For the 1 mM IC50 measurements, ATP concentration in the reactions was 1 mM. Reactions were carried out at room temperature for 1 hour and then stopped with 20 μL 45 mM EDTA, 300 nM SA-APC, 6 nM Eu-Py20 in assay buffer (Perkin Elmer, Boston, Mass.). Binding to the Europium labeled antibody took place for 40 minutes and HTRF signal was measured on a PHERA star plate reader (BMG, Cary, N.C.). The Example compounds were each tested in the Example A assay (see Table 1 for data for the compounds of the examples as tested by the assay of Example A at 1 mM ATP).

human JAK1 [2] = assay: as above; conditions: ratio of IC50s, 1 mM ATP
Procedure: as §1

human JAK2 = human JAK2 (Homo sapiens (Human), UniProt O60674); assay: In vitro JAK kinase assay (HTRF, phosphorylation of a biotinylated peptide), JAK2; parameters: key to JAK2 IC50 (nM): +indicates an IC50 of ≦100 nM; ++indicates an IC50 of ≦1000 nM; +++indicates an IC50 of ≦2000 nM; ++++indicates an IC50 of >2000 nM; +++++indicates that the IC50 was greater than the highest concentration tested; conditions: 1 mM ATP
Procedure: as §1

human JAK2, sequence (O60674 828-1132): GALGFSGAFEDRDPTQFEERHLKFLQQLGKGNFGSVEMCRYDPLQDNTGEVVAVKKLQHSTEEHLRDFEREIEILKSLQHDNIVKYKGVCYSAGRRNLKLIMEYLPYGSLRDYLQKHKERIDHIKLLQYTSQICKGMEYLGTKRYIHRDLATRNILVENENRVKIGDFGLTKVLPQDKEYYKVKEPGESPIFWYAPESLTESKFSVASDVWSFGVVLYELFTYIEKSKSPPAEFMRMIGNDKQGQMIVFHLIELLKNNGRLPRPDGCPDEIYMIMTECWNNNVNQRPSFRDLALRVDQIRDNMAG

SMILES	IC50 (human JAK1 [1]) [µM]	JAK2/JAK1 (human JAK1 [2])	JAK2 IC50 (nM) (human JAK2)	IC50 (human JAK2) [µM]
CCOC(=O)N1CCC[C@H](n2c([C@@H](C)O)nc3cnc4ccsc4c32)C1 [Example 50, Ethyl (3S)-3-{2-[(1R)-1-hydroxyethyl]-1H-imidazo[4,5-d]thieno[3,2-b]pyridin-1-yl}piperidine-1-carboxylate]	≤ 1	>10	+++++	
C[C@@H](O)c1nc2cnc3ccsc3c2n1[C@H]1CCCN(C(=O)CC#N)C1.O=C(O)C(F)(F)F [Example 51, 3-((3S)-3-{2-[(1R)-1-Hydroxyethyl]-1H-imidazo[4,5-d]thieno[3,2-b]pyridin-1-yl}piperidin-1-yl)-3-oxopropanenitrile trifluoroacetate]	≤ 1	>10		> 2
C[C@@H](O)c1nc2cnc3ccsc3c2n1[C@H]1CCCN(C(=O)CCc2cn[nH]c2)C1 [Example 53, (1R)-1-(1-{(3S)-1-[3-(1H-Pyrazol-4-yl)propanoyl]piperidin-3-yl}-1H-imidazo[4,5-d]thieno[3,2-b]pyridin-2-yl)ethanol]	≤ 1	>10	+++++	
C[C@@H](O)c1nc2cnc3ccsc3c2n1[C@H]1CCCN(C(=O)CCc2cccnc2)C1 [Example 54, (1R)-1-{1-[(3S)-1-(3-Pyridin-3-ylpropanoyl)piperidin-3-yl]-1H-imidazo[4,5-d]thieno[3,2-b]pyridin-2-yl}ethanol]	≤ 1	>10	+++++	
CC(CC(=O)N1CCC[C@H](n2c([C@@H](C)O)nc3cnc4ccsc4c32)C1)c1ccccc1 (stereo partly drawn) [Example 55, (1R)-1-{1-[(3S)-1-(3-Phenylbutanoyl)piperidin-3-yl]-1H-imidazo[4,5-d]thieno[3,2-b]pyridin-2-yl}ethanol]	≤ 1	>10	+++++	
C[C@@H](O)c1nc2cnc3ccsc3c2n1[C@H]1CCCN(CCC#N)C1 [Example 56, 3-((3S)-3-{2-[(1R)-1-Hydroxyethyl]-1H-imidazo[4,5-d]thieno[3,2-b]pyridin-1-yl}piperidin-1-yl)propanenitrile]	≤ 1	>10	+++++	
C[C@@H](O)c1nc2cnc3ccsc3c2n1[C@H]1CCCN(C(=O)CCc2ccccc2)C1 [Example 57]	≤ 0.1	>10		> 2
C[C@@H](O)c1nc2cnc3ccsc3c2n1[C@H]1CCCN(C(=O)CCC#N)C1 [Example 58, 4-((3S)-3-{2-[(1R)-1-Hydroxyethyl]-1H-imidazo[4,5-d]thieno[3,2-b]pyridin-1-yl}piperidin-1-yl)-4-oxobutanenitrile]	≤ 0.1	>10	+++++	
C[C@@H](O)c1nc2cnc3ccsc3c2n1[C@H]1CCCN(C(=O)CCCC#N)C1 [Example 59, 5-((3S)-3-{2-[(1R)-1-Hydroxyethyl]-1H-imidazo[4,5-d]thieno[3,2-b]pyridin-1-yl}piperidin-1-yl)-5-oxopentanenitrile]	≤ 1	>10	+++++	
C[C@@H](O)c1nc2cnc3ccsc3c2n1C1CCN(CCCC(F)(F)F)CC1 [Example 60, (1R)-1-{1-[1-(4,4,4-Trifluorobutyl)piperidin-4-yl]-1H-imidazo[4,5-d]thieno[3,2-b]pyridin-2-yl}ethanol]	≤ 1	>10	+++++	
C[C@@H](O)c1nc2cnc3ccsc3c2n1C1CCN(CC#N)CC1.O=C(O)C(F)(F)F [Example 61, (4-{2-[(1R)-1-Hydroxyethyl]-1H-imidazo[4,5-d]thieno[3,2-b]pyridin-1-yl}piperidin-1-yl)acetonitrile trifluoroacetate]	≤ 1	>10	+++++	
C[C@@H](O)c1nc2cnc3ccsc3c2n1[C@H]1CCN(CCC#N)C1 [Example 62, 3-((3S)-3-{2-[(1R)-1-Hydroxyethyl]-1H-imidazo[4,5-d]thieno[3,2-b]pyridin-1-yl}pyrrolidin-1-yl)propanenitrile]	≤ 1	>10		> 2
C[C@@H](O)c1nc2cnc3ccsc3c2n1[C@H]1CCN(C(=O)CC#N)C1 [Example 63, 3-((3S)-3-{2-[(1R)-1-Hydroxyethyl]-1H-imidazo[4,5-d]thieno[3,2-b]pyridin-1-yl}pyrrolidin-1-yl)-3-oxopropanenitrile]	≤ 2	>6	+++++	
C[C@@H](O)c1nc2cnc3ccsc3c2n1[C@H]1CCN(CCCC(F)(F)F)C1 [Example 64, (1R)-1-{1-[(3S)-1-(4,4,4-Trifluorobutyl)pyrrolidin-3-yl]-1H-imidazo[4,5-d]thieno[3,2-b]pyridin-2-yl}ethanol]	≤ 0.1	>10	+++++	
C[C@@H](O)c1nc2cnc3ccsc3c2n1[C@H]1CCN(CCCC#N)C1 [Example 65, 4-((3S)-3-{2-[(1R)-1-Hydroxyethyl]-1H-imidazo[4,5-d]thieno[3,2-b]pyridin-1-yl}pyrrolidin-1-yl)butanenitrile]	≤ 1	>10	+++++	
C[C@@H](O)c1nc2cnc3ccsc3c2n1[C@H]1CCN(CCCCC#N)C1 [Example 66, 5-((3S)-3-{2-[(1R)-1-Hydroxyethyl]-1H-imidazo[4,5-d]thieno[3,2-b]pyridin-1-yl}pyrrolidin-1-yl)pentanenitrile]	≤ 1	>10	+++++	
C[C@@H](O)c1nc2cnc3ccsc3c2n1[C@H]1CC[C@H](CC#N)[C@H](N)C1 [Example 67, ((1R,2R,4S)-2-Amino-4-{2-[(1R)-1-hydroxyethyl]-1H-imidazo[4,5-d]thieno[3,2-b]pyridin-1-yl}cyclohexyl)acetonitrile]	≤ 1	>10		> 2

Further lines, results first:

IC50 (human JAK1 [1]) [µM]	JAK2/JAK1 (human JAK1 [2])	JAK2 IC50 (nM) (human JAK2)	IC50 (human JAK2) [µM]	SMILES
≤ 0.1	>10		≤ 2	CC(N)c1nc2cnc3ccsc3c2n1[C@H]1CC[C@H](CC#N)OC1.O=C(O)C(F)(F)F (stereo partly drawn) [Example 68, {(2R,5S)-5-[2-(1-Aminoethyl)-1H-imidazo[4,5-d]thieno[3,2-b]pyridin-1-yl]tetrahydro-2H-pyran-2-yl}acetonitrile trifluoroacetate]
≤ 1	>10	+++++		CC(=O)NC(C)c1nc2cnc3ccsc3c2n1[C@H]1CC[C@H](CC#N)OC1 (stereo partly drawn) [Example 69, N-(1-{1-[(3S,6R)-6-(Cyanomethyl)tetrahydro-2H-pyran-3-yl]-1H-imidazo[4,5-d]thieno[3,2-b]pyridin-2-yl}ethyl)acetamide]
≤ 1	>10		> 2	CNC(C)c1nc2cnc3ccsc3c2n1[C@H]1CC[C@H](CC#N)OC1 (stereo partly drawn) [Example 70, ((2R,5S)-5-{2-[1-(Methylamino)ethyl]-1H-imidazo[4,5-d]thieno[3,2-b]pyridin-1-yl}tetrahydro-2H-pyran-2-yl)acetonitrile]
≤ 0.1	>10		≤ 1	CC(F)c1nc2cnc3ccsc3c2n1[C@H]1CC[C@H](CC#N)OC1 (stereo partly drawn) [Example 71, {(2R,5S)-5-[2-(1-Fluoroethyl)-1H-imidazo[4,5-d]thieno[3,2-b]pyridin-1-yl]tetrahydro-2H-pyran-2-yl}acetonitrile]
≤ 0.1	>10		≤ 1	N#CCc1nc2cnc3ccsc3c2n1[C@H]1CC[C@H](CC#N)OC1 [Example 73, {(2R,5S)-5-[2-(Cyanomethyl)-1H-imidazo[4,5-d]thieno[3,2-b]pyridin-1-yl]tetrahydro-2H-pyran-2-yl}acetonitrile]
≤ 1	>10	+++++		N#CCc1nc2cnc3ccsc3c2n1[C@H]1CC[C@@H](CC#N)OC1 [Example 74, {(2S,5S)-5-[2-(Cyanomethyl)-1H-imidazo[4,5-d]thieno[3,2-b]pyridin-1-yl]tetrahydro-2H-pyran-2-yl}acetonitrile]
≤ 0.1	>10		≤ 2	C[C@@H](O)c1nc2cnc3ccsc3c2n1[C@H]1CC[C@H](CNS(C)(=O)=O)OC1 [Example 75, N-[((2R,5S)-5-{2-[(1R)-1-Hydroxyethyl]-1H-imidazo[4,5-d]thieno[3,2-b]pyridin-1-yl}tetrahydro-2H-pyran-2-yl)methyl]methanesulfonamide]
